Data as given in ChEMBL document CHEMBL4364312, “Design, synthesis and biological evaluation of hydroxypyridinone-coumarin hybrids as multimodal monoamine oxidase B inhibitors and iron chelates against Alzheimer's disease” (Eur J Med Chem, 2019).

Assays:
[1] = molecular target: T1, Amine oxidase [flavin-containing] B (Homo sapiens, UniProt P27338); settings: 0.25 h, read-out: INH
T1 sequence (P27338 whole entry): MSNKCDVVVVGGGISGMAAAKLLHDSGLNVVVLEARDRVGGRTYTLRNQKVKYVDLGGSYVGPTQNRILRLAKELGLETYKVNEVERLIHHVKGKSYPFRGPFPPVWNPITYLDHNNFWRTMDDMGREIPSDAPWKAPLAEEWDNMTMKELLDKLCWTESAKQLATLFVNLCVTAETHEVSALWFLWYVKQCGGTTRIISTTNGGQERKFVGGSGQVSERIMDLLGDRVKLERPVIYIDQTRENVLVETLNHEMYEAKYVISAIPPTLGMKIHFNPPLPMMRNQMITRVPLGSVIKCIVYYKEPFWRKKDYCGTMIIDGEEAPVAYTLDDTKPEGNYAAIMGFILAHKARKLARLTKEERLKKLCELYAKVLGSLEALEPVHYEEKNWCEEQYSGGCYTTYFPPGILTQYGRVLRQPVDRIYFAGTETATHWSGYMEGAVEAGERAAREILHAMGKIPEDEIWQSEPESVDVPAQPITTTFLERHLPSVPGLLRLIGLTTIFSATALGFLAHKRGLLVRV
Description: Inhibition of recombinant human MAO-B expressed in baculovirus infected BTI insect cells at 10 uM incubated for 15 mins with substrate p-Tyramine by fluorescence assay relative to control

[2] = physchem; settings: DMSO:KCl
Description: Dissociation constant, pKa1 of compound for protonation of the 4-oxo group in DMSO:KCl at 30 uM/L incubated for 1 min by UV-Vis spectrophotometry

[3] = physchem; settings: DMSO:KCl; remark: listed apart in the source
Description: Dissociation constant, pKa2 of compound for 3-(or 5-) hydroxyl group in DMSO:KCl at 30 uM/L incubated for 1 min by UV-Vis spectrophotometry

[4] = molecular target: T1, Amine oxidase [flavin-containing] B; assay: biochemical
Description: Inhibition of recombinant human MAO-B expressed in baculovirus infected BTI insect cells incubated for 15 mins with substrate p-Tyramine by fluorescence assay

[5] = system: U-251; assay: Cytotoxicity against human U251 cells assessed as reduction in cell viability at 0.01 to 100 uM incubated for 24 hrs by MTS assay; type: cell-based; settings: u-251, 24 h
[6] = system: U-251; assay: Cytoprotective against H2O2-induced cell death in human U251 cells assessed as increase in cell viability at 100 uM preincubated for 24 hrs followed by H2O2 induction and measured after 1 hr by MTS assay (reference value: 50%); type: functional
[7] = system: Mus musculus; assay: Cognition enhancement in scopolamine-induced impairment in ICR mouse assessed as latency time at 10 mg/kg, ip administered once daily for 2 weeks pretreated with scopolamine for 30 mins and measured at 5th day of training session by Morris water maze test (reference value: 40.2 +/- 10.5 sec); type: functional
[8] = system: Mus musculus; assay: (§1) Cognition enhancement in scopolamine-induced impairment in ICR mouse assessed as distance to target at 10 mg/kg, ip administered once daily for 2 weeks pretreated with scopolamine for 30 mins and measured at 5th day of training session by Morris water maze test (reference value: 10.4 +/- 1.2 meter); type: functional
[9] = system: Mus musculus; assay: as §1, with “number of times” for “distance”, “to enter” for “to”, “target quadrant” for “target”, “9.0” for “10.4”, “0.8)” for “1.2 meter)”; type: functional
[10] = Binding affinity to Fe3+ assessed as equilibrium binding constant logK2 in KCl pH 2 to 10.5 at 30 uM incubated for 20 mins by UV-Vis spectrophotometric method
[11] = Binding affinity to Fe3+ assessed as equilibrium binding constant logK3 in KCl pH 2 to 10.5 at […] 30 uM by UV-Vis spectrophotometric method

Compound | inhibition at 10 µM [1] [%] | pKa at 1 min, 30 µM [2] | pKa at 1 min, 30 µM [3] | IC50 [4] [nM] | also measured
COc1ccc2cc(Cn3ccc(=O)c(O)c3C)c(=O)oc2c1 | 94.4 | 3.13 | 9.66 | 91.9 | –
CCc1c(O)c(=O)ccn1Cc1cc2ccccc2oc1=O | 25 | 3.03 | 9.7 | – | –
COc1ccc2cc(Cn3cc(O)c(=O)cc3C)c(=O)oc2c1 | 38.3 | 3.15 | 9 | – | –
Cc1c(O)c(=O)ccn1Cc1cc2ccc(OCc3cccc(Cl)c3)cc2oc1=O | 21.2 | 3.17 | 9.67 | – | –
Cc1c(O)c(=O)ccn1Cc1cc2ccccc2oc1=O | 22.4 | 3.07 | 9.68 | – | –
Cc1c(O)c(=O)ccn1Cc1cc2ccc(OCc3ccccc3)cc2oc1=O | 89.6 | 3.11 | 9.61 | 336 | –
Cc1cc(=O)c(O)cn1Cc1cc2ccc(OCc3cc(F)cc(F)c3)cc2oc1=O | 68.1 | 3.11 | 8.95 | – | –
Cc1cc(=O)c(O)cn1Cc1cc2ccc(OCc3cccc(F)c3)cc2oc1=O | 85.8 | 3.15 | 8.99 | 193 | –
CCc1c(O)c(=O)ccn1Cc1cc2ccc(OC)cc2oc1=O | 50.7 | 3.09 | 9.7 | – | –
CCc1c(O)c(=O)ccn1Cc1cc2ccc(OCc3ccc(F)cc3)cc2oc1=O | 91.6 | 3.15 | 9.62 | 163 | –
C#CCOc1ccc2cc(Cn3ccc(=O)c(O)c3C)c(=O)oc2c1 | 47.1 | 3.11 | 9.58 | – | –
Cc1c(O)c(=O)ccn1Cc1cc2ccc(OCc3cccc(F)c3)cc2oc1=O | 81.3 | 3.1 | 9.65 | 14.7 | Activity [5]: Non-Toxic; Activity [6]: 57.8%; Time [7]: 9.6 s; Activity [8]: 4.2 m; Activity [9]: 16.6
Cc1cc(=O)c(O)cn1Cc1cc2ccc(OCc3ccc(F)cc3)cc2oc1=O | 87.6 | 3.26 | 8.87 | 145 | –
CCc1c(O)c(=O)ccn1Cc1cc2ccc(OCc3ccccc3)cc2oc1=O | 91.9 | 3.11 | 9.71 | 129 | –
Cc1cc(=O)c(O)cn1Cc1cc2ccc(OCc3ccccc3)cc2oc1=O | 86.5 | 3.12 | 9.03 | 290 | –
Cc1cc(=O)c(O)cn1Cc1cc2ccc(OCc3cccc(Cl)c3)cc2oc1=O | 82 | 3.16 | 9.07 | 126 | –
CCc1c(O)c(=O)ccn1Cc1cc2ccc(OCc3cccc(F)c3)cc2oc1=O | 91.9 | 3.12 | 9.69 | 265 | –
Cc1cc(=O)c(O)cn1Cc1cc2ccccc2oc1=O | 6.8 | 3.14 | 8.97 | – | –
C#CCOc1ccc2cc(Cn3ccc(=O)c(O)c3CC)c(=O)oc2c1 | 78.1 | 2.95 | 9.63 | 121 | –
CCc1c(O)c(=O)ccn1Cc1cc2ccc(OCc3cccc(Cl)c3)cc2oc1=O | 92.5 | 3.1 | 9.76 | 425 | –
CCc1c(O)c(=O)ccn1Cc1cc2ccc(OCc3cc(F)cc(F)c3)cc2oc1=O | 91.7 | 3.08 | 9.7 | 223 | –
Cc1c(O)c(=O)ccn1C [DEFERIPRONE] | – | 3.65 | 9.89 | – | logKb [10]: 27.7; logKb [11]: 37.3
O=C1O[C@H]([C@@H](O)CO)C(O)=C1O [ASCORBIC ACID] | – | – | – | – | Activity [6]: 57.6%
C#CCOc1ccc2cc(Cn3cc(O)c(=O)cc3C)c(=O)oc2c1 | 50.6 | 3.07 | 8.94 | – | –
C#CCN(C)Cc1ccccc1 [PARGYLINE] | – | – | – | – | Activity [6]: 61.5%; Time [7]: 5.6 s; Activity [8]: 6.6 m; Activity [9]: 16.3
Cc1c(O)c(=O)ccn1Cc1cc2ccc(OCc3cc(F)cc(F)c3)cc2oc1=O | 67.5 | 3.1 | 9.54 | – | –
